Source: ChEMBL document CHEMBL4414602, “Bipolaricins A-I, Ophiobolin-Type Tetracyclic Sesterterpenes from a Phytopathogenic Bipolaris sp. Fungus” (J Nat Prod, 2019)

system: MDA-MB-231; experiment: Cytotoxicity against human MDA-MB-231 cells by MTT assay; assay type: cell-based; conditions: not given

Question: How did the IC50 turn out when `CC(C)=C[C@H]1C[C@H](C)[C@]2(CC[C@]3(C)C[C@@H]4C(CO)=CC(=O)[C@H]4/C(C)=C\C[C@H]32)O1` was run?
Answer: > 40 µM

Question: Which IC50 does the source give for `CC1=CC(=O)[C@H]2/C(C)=C\C[C@@H]3[C@](C)(CC[C@@]34O[C@@H](/C=C(\C)CO)C[C@@H]4C)C[C@H]12` here?
Answer: > 40 µM

Question: For `CC(C)=C[C@H]1C[C@H](C)[C@]2(CC[C@]3(C)C[C@@H]4C(C)=CC(=O)[C@H]4/C(C(=O)O)=C\C[C@H]32)O1`, which IC50 is on record?
Answer: > 40 µM

Question: `CC(C)=C[C@H]1C[C@H](C)[C@]2(CC[C@]3(C)C[C@@H]4C(C)=CC(=O)/C4=C(\C(=O)O)[C@@H](O)C[C@H]32)O1` was tested. Which IC50 did it give?
Answer: > 40 µM

Question: Which IC50 does the source give for `CC(C)=C[C@H]1C[C@H](C)[C@]2(CC[C@]3(C)C[C@@H]4C(C)=CC(=O)/C4=C(\CO)[C@H](O)C[C@H]32)O1` here?
Answer: > 40 µM

Question: With `CC1=CC(=O)/C2=C(\CO)[C@@H](O)C[C@@H]3[C@](C)(CC[C@@]34O[C@@H](/C=C(\C)CO)C[C@@H]4C)C[C@H]12` as the compound, how does the IC50 read?
Answer: > 40 µM

system: HepG2; experiment: Cytotoxicity against human HepG2 cells by MTT assay; assay type: cell-based; conditions: not given

Question: `CC(C)=C[C@H]1C[C@H](C)[C@]2(CC[C@]3(C)C[C@@H]4C(CO)=CC(=O)[C@H]4/C(C)=C\C[C@H]32)O1` was tested. Which IC50 did it give?
Answer: > 40 µM

Question: With `CC1=CC(=O)[C@H]2/C(C)=C\C[C@@H]3[C@](C)(CC[C@@]34O[C@@H](/C=C(\C)CO)C[C@@H]4C)C[C@H]12` as the compound, how does the IC50 read?
Answer: > 40 µM

Question: With `CC(C)=C[C@H]1C[C@H](C)[C@]2(CC[C@]3(C)C[C@@H]4C(C)=CC(=O)[C@H]4/C(C(=O)O)=C\C[C@H]32)O1` as the compound, how does the IC50 read?
Answer: > 40 µM

Question: How did the IC50 turn out when `CC(C)=C[C@H]1C[C@H](C)[C@]2(CC[C@]3(C)C[C@@H]4C(C)=CC(=O)/C4=C(\C(=O)O)[C@@H](O)C[C@H]32)O1` was run?
Answer: > 40 µM

Question: For `CC(C)=C[C@H]1C[C@H](C)[C@]2(CC[C@]3(C)C[C@@H]4C(C)=CC(=O)/C4=C(\CO)[C@H](O)C[C@H]32)O1`, which IC50 is on record?
Answer: > 40 µM

Question: With `CC1=CC(=O)/C2=C(\CO)[C@@H](O)C[C@@H]3[C@](C)(CC[C@@]34O[C@@H](/C=C(\C)CO)C[C@@H]4C)C[C@H]12` as the compound, how does the IC50 read?
Answer: > 40 µM

system: RAW264.7; experiment: Cytotoxicity against mouse RAW264.7 cells at 40 uM by MTT assay; assay type: cell-based; conditions: raw264.7, 40 µM

Question: `CC(C)=C[C@H]1C[C@H](C)[C@]2(CC[C@]3(C)C[C@@H]4C(CO)=CC(=O)[C@H]4/C(C)=C\C[C@H]32)O1` was tested. Which Activity did it give?
Answer: Non-Toxic

Question: Which Activity does the source give for `CC1=CC(=O)[C@H]2/C(C)=C\C[C@@H]3[C@](C)(CC[C@@]34O[C@@H](/C=C(\C)CO)C[C@@H]4C)C[C@H]12` here?
Answer: Non-Toxic

Question: Which Activity does the source give for `CC(C)=C[C@H]1C[C@H](C)[C@]2(CC[C@]3(C)C[C@@H]4C(C)=CC(=O)[C@H]4/C(C(=O)O)=C\C[C@H]32)O1` here?
Answer: Non-Toxic

Question: With `CC(C)=C[C@H]1C[C@H](C)[C@]2(CC[C@]3(C)C[C@@H]4C(C)=CC(=O)/C4=C(\C(=O)O)[C@@H](O)C[C@H]32)O1` as the compound, how does the Activity read?
Answer: Non-Toxic

Question: `CC(C)=C[C@H]1C[C@H](C)[C@]2(CC[C@]3(C)C[C@@H]4C(C)=CC(=O)/C4=C(\CO)[C@H](O)C[C@H]32)O1` was tested. Which Activity did it give?
Answer: Non-Toxic

Question: How did the Activity turn out when `CC1=CC(=O)/C2=C(\CO)[C@@H](O)C[C@@H]3[C@](C)(CC[C@@]34O[C@@H](/C=C(\C)CO)C[C@@H]4C)C[C@H]12` was run?
Answer: Non-Toxic

system: RAW264.7; experiment: Antiinflammatory activity in mouse RAW264.7 cells assessed as inhibition of LPS-induced nitric oxide production pretreated for 2 hrs followed by LPS challenge and measured after 12 hrs by Griess assay; assay type: functional, cell-based; conditions: not given

Question: For `CC(C)=C[C@H]1C[C@H](C)[C@]2(CC[C@]3(C)C[C@@H]4C(CO)=CC(=O)[C@H]4/C(C)=C\C[C@H]32)O1`, which IC50 is on record?
Answer: > 40 µM

Question: With `CC1=CC(=O)[C@H]2/C(C)=C\C[C@@H]3[C@](C)(CC[C@@]34O[C@@H](/C=C(\C)CO)C[C@@H]4C)C[C@H]12` as the compound, how does the IC50 read?
Answer: > 40 µM

Question: Which IC50 does the source give for `CC(C)=C[C@H]1C[C@H](C)[C@]2(CC[C@]3(C)C[C@@H]4C(C)=CC(=O)[C@H]4/C(C(=O)O)=C\C[C@H]32)O1` here?
Answer: > 40 µM

Question: Which IC50 does the source give for `CC(C)=C[C@H]1C[C@H](C)[C@]2(CC[C@]3(C)C[C@@H]4C(C)=CC(=O)/C4=C(\C(=O)O)[C@@H](O)C[C@H]32)O1` here?
Answer: > 40 µM

Question: With `COc1ccc2c(c1)c(CC(=O)O)c(C)n2C(=O)c1ccc(Cl)cc1` [INDOMETHACIN] as the compound, how does the IC50 read?
Answer: 8.8 µM

Question: How did the IC50 turn out when `CC(C)=C[C@H]1C[C@H](C)[C@]2(CC[C@]3(C)C[C@@H]4C(C)=CC(=O)/C4=C(\CO)[C@H](O)C[C@H]32)O1` was run?
Answer: 20 µM

Question: Which IC50 does the source give for `CC1=CC(=O)/C2=C(\CO)[C@@H](O)C[C@@H]3[C@](C)(CC[C@@]34O[C@@H](/C=C(\C)CO)C[C@@H]4C)C[C@H]12` here?
Answer: 19 µM

system: A549; experiment: Cytotoxicity against human A549 cells by MTT assay; assay type: cell-based; conditions: not given

Question: Which IC50 does the source give for `CC(C)=C[C@H]1C[C@H](C)[C@]2(CC[C@]3(C)C[C@@H]4C(CO)=CC(=O)[C@H]4/C(C)=C\C[C@H]32)O1` here?
Answer: > 40 µM

Question: How did the IC50 turn out when `CC1=CC(=O)[C@H]2/C(C)=C\C[C@@H]3[C@](C)(CC[C@@]34O[C@@H](/C=C(\C)CO)C[C@@H]4C)C[C@H]12` was run?
Answer: > 40 µM

Question: Which IC50 does the source give for `CC(C)=C[C@H]1C[C@H](C)[C@]2(CC[C@]3(C)C[C@@H]4C(C)=CC(=O)[C@H]4/C(C(=O)O)=C\C[C@H]32)O1` here?
Answer: > 40 µM

Question: `CC(C)=C[C@H]1C[C@H](C)[C@]2(CC[C@]3(C)C[C@@H]4C(C)=CC(=O)/C4=C(\C(=O)O)[C@@H](O)C[C@H]32)O1` was tested. Which IC50 did it give?
Answer: > 40 µM

Question: Which IC50 does the source give for `CC(C)=C[C@H]1C[C@H](C)[C@]2(CC[C@]3(C)C[C@@H]4C(C)=CC(=O)/C4=C(\CO)[C@H](O)C[C@H]32)O1` here?
Answer: > 40 µM

Question: With `CC1=CC(=O)/C2=C(\CO)[C@@H](O)C[C@@H]3[C@](C)(CC[C@@]34O[C@@H](/C=C(\C)CO)C[C@@H]4C)C[C@H]12` as the compound, how does the IC50 read?
Answer: > 40 µM

system: SW1990; experiment: Cytotoxicity against human SW1990 cells by MTT assay; assay type: cell-based; conditions: not given

Question: With `CC(C)=C[C@H]1C[C@H](C)[C@]2(CC[C@]3(C)C[C@@H]4C(CO)=CC(=O)[C@H]4/C(C)=C\C[C@H]32)O1` as the compound, how does the IC50 read?
Answer: > 40 µM

Question: `CC1=CC(=O)[C@H]2/C(C)=C\C[C@@H]3[C@](C)(CC[C@@]34O[C@@H](/C=C(\C)CO)C[C@@H]4C)C[C@H]12` was tested. Which IC50 did it give?
Answer: > 40 µM

Question: `CC(C)=C[C@H]1C[C@H](C)[C@]2(CC[C@]3(C)C[C@@H]4C(C)=CC(=O)[C@H]4/C(C(=O)O)=C\C[C@H]32)O1` was tested. Which IC50 did it give?
Answer: > 40 µM

Question: With `CC(C)=C[C@H]1C[C@H](C)[C@]2(CC[C@]3(C)C[C@@H]4C(C)=CC(=O)/C4=C(\C(=O)O)[C@@H](O)C[C@H]32)O1` as the compound, how does the IC50 read?
Answer: > 40 µM

Question: Which IC50 does the source give for `CC(C)=C[C@H]1C[C@H](C)[C@]2(CC[C@]3(C)C[C@@H]4C(C)=CC(=O)/C4=C(\CO)[C@H](O)C[C@H]32)O1` here?
Answer: > 40 µM

Question: Which IC50 does the source give for `CC1=CC(=O)/C2=C(\CO)[C@@H](O)C[C@@H]3[C@](C)(CC[C@@]34O[C@@H](/C=C(\C)CO)C[C@@H]4C)C[C@H]12` here?
Answer: > 40 µM
